According to article PMC6328429, “Synthesis of a benzoxazinthione derivative of tanaproget and pharmacological evaluation for PET imaging of PR expression” (EJNMMI Radiopharmacy and Chemistry, 2019):

Tests used:
[1] = In vitro non-radioactive metabolite analysis and clearance in HLM; type: in vitro ADME, human
Method: (§1) Microsomal incubations were performed using a Hamilton Microlab Star liquid handling workstation (Hamilton Robotics, Bonaduz, Switzerland). Test compound 2 (final concentration 1 or 10 μM, 1% DMSO) was pre-incubated at 37 °C for 10 min in MLM or HLM (final concentration 1 mg/ml prepared in 10 mM PBS). Reactions were initiated by the addition of NADPH (final concentration 1 mM). Aliquots were removed from each incubation and quenched in 3 volumes of ice-cold MeOH containing internal standard olomoucine (500 nM in MeOH) at − 1, 0, 5, 15, 30 and 60 min. Incubations were conducted in singlicate. […] Terminated incubations were centrifuged at 3700 rpm at 4 °C for 30 min and supernatant taken for analysis. Microsomal incubations were analysed by liquid chromatography-tandem mass spectrometry (LC-MS/MS). This consisted of a Dionex Ultimate 3000 UHPLC system coupled to a ThermoScientific Q Exactive Plus orbitrap mass spectrometer (Thermo Fisher Scientific Inc., Waltham, USA). Chromatographic separation was achieved using an Acquity UPLC HSS T3 column (1.8 μm, 100 × 2.1 mm) (Waters, Elstree, UK) at 50 °C and a binary mobile phase gradient at a flow rate of 0.4 ml/min. Initial LC conditions comprised 10% formic acid (0.1%) in water (A), 90% methanol (B). This was ramped to […] at 12 min. Sample analysis was by positive ion electrospray ionization. The capillary voltage was 3.5 kV. Full MS/dd-MS^2 (full MS scan followed by data dependent MS/MS) and Full MS/AIF (full MS scan followed by all ion fragmentation) workflows were used in combination. Full MS was performed at a resolution of 70,000, AGC target 1 e^6; dd-MS2 at a resolution of 17,5000, AGC target 1 e^5. LC-MS response (peak area of the analyte/peak area of internal standard) was fitted to a nonlinear single exponential model using software GraphPad Prism software (v6.07, GraphPad Software, Inc., La Jolla, USA). Elimination rate constant (k) was determined and intrinsic clearance, CLint, was calculated as CLint = (V.k)/mg protein where V is the incubation volume (μl) and mg protein is the mg microsomal protein in the incubation. Identification of metabolites in microsomal incubations and elucidation of their structures was undertaken with Compound Discoverer software (v2.0.0.303, Thermo Fisher Scientific Inc., Waltham, USA).

[2] = In vitro non-radioactive metabolite analysis and clearance in MLM; type: in vitro ADME, mouse
Method: as §1

[3] = molecular target: T1, progesterone receptor (PR) (Homo sapiens, UniProt P06401); assay: T47D alkaline phosphatase (AP) potency assay; type: cell-based; conditions: for EC50 / T47D alkaline phosphatase assay EC50: agonist response, 48 h incubation; for EC50 / T47D alkaline phosphatase assay EC50 / IC50: average of at least n = 3 ± SD; for IC50: inhibition of progesterone
T1 construct: endogenous in cells; host or cells: T47D breast carcinoma cells
T1 sequence (P06401 1-933): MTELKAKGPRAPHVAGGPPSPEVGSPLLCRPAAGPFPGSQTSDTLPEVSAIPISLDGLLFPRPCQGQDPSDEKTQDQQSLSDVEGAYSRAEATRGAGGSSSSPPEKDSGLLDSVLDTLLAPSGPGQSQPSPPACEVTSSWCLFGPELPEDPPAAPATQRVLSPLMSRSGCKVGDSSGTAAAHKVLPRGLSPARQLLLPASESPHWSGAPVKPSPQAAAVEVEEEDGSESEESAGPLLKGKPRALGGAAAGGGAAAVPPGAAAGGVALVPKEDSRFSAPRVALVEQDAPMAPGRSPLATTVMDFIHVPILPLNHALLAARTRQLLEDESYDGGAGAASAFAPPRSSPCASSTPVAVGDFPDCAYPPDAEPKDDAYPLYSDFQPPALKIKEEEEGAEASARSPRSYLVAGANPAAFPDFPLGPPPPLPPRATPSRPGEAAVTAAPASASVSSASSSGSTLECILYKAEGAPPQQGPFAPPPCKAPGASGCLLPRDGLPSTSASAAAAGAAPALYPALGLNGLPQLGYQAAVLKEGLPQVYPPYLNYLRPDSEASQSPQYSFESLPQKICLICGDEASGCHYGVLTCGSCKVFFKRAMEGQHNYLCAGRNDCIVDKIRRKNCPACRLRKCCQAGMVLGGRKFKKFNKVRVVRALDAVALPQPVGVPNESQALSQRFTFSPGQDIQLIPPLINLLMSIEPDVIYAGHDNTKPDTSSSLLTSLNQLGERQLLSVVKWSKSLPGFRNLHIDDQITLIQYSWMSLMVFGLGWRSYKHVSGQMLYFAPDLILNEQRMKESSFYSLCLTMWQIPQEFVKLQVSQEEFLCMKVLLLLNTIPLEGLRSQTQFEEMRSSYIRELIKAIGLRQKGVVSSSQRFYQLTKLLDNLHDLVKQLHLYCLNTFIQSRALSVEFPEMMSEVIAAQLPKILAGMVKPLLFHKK
Method: The method described by Di Lorenzo et al was followed with minor adaptation (Di Lorenzo et al., [1991]). In brief, T47D breast carcinoma cells were seeded in 96-well plates at 50,000 cell/well in RPMI medium supplemented with 10% FBS. After overnight culture, the medium was changed to RPMI phenol red free containing 2% charcoal-stripped FBS. After 24 h, the cells were treated with progesterone (Sigma Aldrich, Gillingham, UK) or the library compounds. Progesterone and the test compounds were dissolved in DMSO (100%) and diluted into treatment medium to give a final DMSO (v/v) concentration of 0.1%. After incubation (48 h) the treatment was finalised by twice washing the plates with PBS. Cells were lysed by two freeze-thaw cycles (− 80 °C). Cellular alkaline phosphatase activity was determined by adding Femto ELISA-AP substrate (200 μL) and optical density measurements taken at 5 and 10 min intervals at a wavelength of 405 nm. Data was interpreted using Graphpad Prism (GraphPad, CA, USA) using the model: dose-response simulation/inhibition, log(agonist/inhibition) vs. response – variable slope (four parameters). For compounds where EC50 > 10,000, an antagonist profile was assumed and the experiment was repeated with the inclusion of progesterone (3 mM) with the library compound. Data shown in the supporting information (Additional file 1: Figure S32).

Compound | EC50 [3] [nM] | T47D alkaline phosphatase assay EC50 [3] | IC50 [3] [nM] | other results
CC1(C)OC(=O)Nc2ccc(-c3cccnc3F)cc21 [Compound 1, 6-(2-fluoropyridin-3-yl)-4,4-dimethyl-1H-benzo[d][1,3]oxazin-2(4H)-one] | > 10000 | did not induce an agonist response | 844.8 ± 0.23 | Clearance (CLint) in HLM ([1]; HLM 1 mg/ml, NADPH 1 mM, 37 °C): comparable clearance; Metabolite identification by mass spectrometry in HLM ([1]; HLM incubation, LC-MS/MS): defluorinated species; Clearance (CLint) in MLM ([2]; MLM 1 mg/ml, NADPH 1 mM, 37 °C): comparable clearance; Metabolite identification by mass spectrometry in MLM ([2]; MLM incubation, LC-MS/MS): defluorinated species
CC1(C)OC(=O)Nc2ccc(-c3ccc(F)nc3)cc21 [Compound 3, 6-(6-fluoropyridin-3-yl)-4,4-dimethyl-1H-benzo[d][1,3]oxazin-2(4H)-one] | > 10000 | did not induce an agonist response | 795 ± 0.25 | –
CC1(C)OC(=S)Nc2ccc(-c3ccc(F)nc3)cc21 [Compound 4, 6-(6-fluoropyridin-3-yl)-4,4-dimethyl-1H-benzo[d][1,3]oxazine-2(4H)-thione] | 3674 ± 0.08 | – | – | –
CC1(C)OC(=O)Nc2ccc(-c3ccc(F)c(Cl)c3)cc21 [Compound 5, 6-(3-chloro-4-fluorophenyl)-4,4-dimethyl-1H-benzo[d][1,3]oxazin-2(4H)-one] | 2294 ± 0.29 | – | – | –
CC1(C)OC(=S)Nc2ccc(-c3ccc(F)c(Cl)c3)cc21 [Compound 6, 6-(3-chloro-4-fluorophenyl)-4,4-dimethyl-1H-benzo[d][1,3]oxazine-2(4H)-thione] | 432.5 ± 0.24 | – | – | fold more potent (EC50) than oxocarbamate derivative 5 ([3]; compound 6 versus 5): ~5 fold
Cn1c(C#N)ccc1-c1ccc2c(c1)C(C)(C)OC(=S)N2 [TNP, Tanaproget] | 0.5 | – | – | –
